Measurements published in patent publication US20260306460A1, “COMPOSITION FOR REMOVING AND INHIBITING SENESCENT CELLS, AND USES THEREOF” (LIFECEUTIX CO., LTD., priority 2023, published 2026).

Assays:
[1] = test system: naturally aged C57BL6J mice; assay: Hot plate joint pain test in naturally aged mice, Example 21-12, Table 27; format: in vivo, mouse; details: hot plate 55° C., untreated aged 6.9 (±1.8)
Experimental: (§1) 22-month-old female C57BL6J mice (KRIBB Laboratory Animal Resource Center) were acclimated to the experimental environment for one week, after which the aged mice were randomly assigned to experimental and control groups. Eight-week-old, non-aged mice served as controls. LX-403 was mixed in a 10% ethanol solution of PEG400 and administered orally at a concentration of 25 mg/kg daily for 21 days, or administered to the skin, joints, or eyes at a concentration of 1 μM. LX-1801 was mixed in distilled water with 4% DMSO, 30% PEG300, and 5% Tween80 and administered to the skin, joints, or eyes at a concentration of 0.4 μM daily for 21 days. LX-2001 was mixed in PBS and administered to the skin, joints, or eyes at a concentration of […] daily for 21 days. LX-2002 was mixed in distilled water with 4% DMSO, 30% PEG300, and 5% Tween80 and administered to the skin, joints, or eyes at a concentration of 2 μM daily for 21 days. […] LX-2005 was mixed in distilled water with 4% DMSO, 30% PEG300, and 5% Tween80 and administered to the skin, joints, or eyes at a concentration of 90 μM daily for 21 days. LX-2007 was mixed in distilled water with 4% DMSO, 30% PEG300, and 5% Tween80 and administered to the skin, joints, or eyes at a concentration of 90 μM daily for 21 days. […] LX-3002 was mixed in distilled water with 4% DMSO, 30% PEG300, and 5% Tween80 and administered orally at a concentration of 10 mg/kg daily for 21 days. […] LX-5411 was mixed in 5% PBS and administered orally at a concentration of 10 mg/kg daily for 21 days or administered to the skin, joints, or eyes at a concentration of 3 μM. LX-5701 was mixed in PBS and administered orally at a concentration of 360 mg/kg daily for 21 days. LX-6807 was mixed in saline and administered intraperitoneally at a concentration of 1 mg/kg daily for 21 days. LX-2101 or LX-2102 was mixed in PBS solution with 5% DMSO and administered intraperitoneally at a concentration of 20 mg/kg or 10 mg/kg, respectively, daily for 21 days. The control group received only the solution in the same volume. After the end of drug administration, the methods described in each example below were performed.
RNA was extracted from joint tissue as described in Example 7-2 of WO2023-085787 A1, and qRT-PCR was performed using the synthesized cDNA. […] To analyze joint pain due to joint aging, hotplate analysis was performed. Specifically, thermal pain thresholds were measured using a hot plate. After acclimating mice to a temperature of 30° C. for 10 minutes, the time required for hind paw licking or jumping responses to occur at 55° C. was measured. To prevent tissue damage, the response was measured for less than 30 seconds, and the average value was used from five measurements.

[2] = test system: NaIO3-induced retinal degenerative C57BL6J mice; assay: NaIO3 retinal degeneration in mice (p16 mRNA, outer nuclear layer thickness), Example 29, Table 53; format: in vivo, mouse; details: daily for 21 days; for Outer nuclear layer thickness: untreated 27.4 (±1.3); for p16 mRNA: untreated 100%
Experimental: Then, retinal degenerative diseases were induced for more than 7 days by intravenous administration of 20 mg/kg of NaIO3, an oxidizing agent that induces retinal pigment epithelial cell death and retinal degeneration. Mice with retinal degenerative diseases were randomly assigned to experimental and control groups. […] The control group received only the solution in the same volume. […] In addition, frozen sections of the other eye tissue were stained with H/E (Hematoxylin/Eosin), and the thickness of the outer nuclear layer (ORL) was observed under an optical microscope. […] The mRNA amount after aging induction was calculated as 100% and compared with the mRNA amount of p16 after treatment with the test compound.

[3] = test system: HMGN1 secreted from senescent A549 cells; assay: HMGN1 secretion (ELISA) from senescent A549 cancer cells, Example 12; format: cell-based, human; details: senescent untreated = 100%; 30 μM; 90 μM for LX-305, 905, 1302, 1601, 1603, 2003, 2702, 2901, 3106; 270 μM for LX-1103, 2005, 2007;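 further: A549 cells made senescent by doxorubicin exposure, with DMSO-treated cells serving as the non-senescent control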
Experimental: Cells were treated with doxorubicin or control (DMSO) and cultured.

[4] = test system: naturally aged C57BL6J mice; assay: Skin aging (dermal thickness, COL1A1 and SDF1 mRNA, hair loss) in naturally aged mice, Example 21-10, Table 25; format: in vivo, mouse; details: for Dermal Thickness (μm): mouse, in vivo; for Relative area of hair loss (%) / Col1a1 mRNA (Fold) / SDF1 mRNA (fold): naturally aged mice; for Relative area of hair loss (%): untreated aged = 100; for Col1a1 mRNA (Fold) / SDF1 mRNA (fold): skin, untreated aged = 1
Experimental: as §1
Frozen sections of skin tissue were stained with Hematoxylin/Eosin (H/E), and the dermal thickness was observed under an optical microscope. Furthermore, the mRNA levels of collagen (COL1A1), a skin component, and SDF1, which suppresses age-related pigmentation, were measured using qRT-PCR as described in Example 7-2 of WO2023-085787 A1. […] Furthermore, biweekly examinations were performed to assess the onset of hair loss due to aging.

[5] = test system: senescent foreskin cells; assay: Survival of senescent human cells treated with supernatant (secreted fluid) from death-induced cells, Example 13; format: cell-based; details: Table 8; supernatant from dying senescent cells treated at 30, 90 or 270 μM (as Example 11); senescent treated cells
Experimental: After 3 days, cell viability was measured using CellTiter-Glo Luminescent Cell Viability Assay (Promega) or light microscopy.
During this additional culture, by checking with an optical microscope, etc., the medium supernatants containing secreted fluid from normally proliferating and senescent cells in which cell death was induced were obtained. The obtained medium supernatant was replaced with the medium of normally proliferating and senescent cells, respectively, and cell survival rate was measured after 3 days.

[6] = test system: bleomycin-induced scleroderma C57BL6J mice; assay: Bleomycin scleroderma in mice (p16, COL1A1 mRNA, dermal thickness), Example 24-2, Table 48; format: in vivo, mouse; details: daily for 21 days; for p16 mRNA: untreated 100 (±8.8); for Col1a1 mRNA: untreated 100 (±13.2); for Dermal Thickness: untreated 459 (±38.7)
Experimental: Eight-week-old male C57BL6J mice (KRIBB Laboratory Animal Resource Center) were acclimated to the experimental environment for one week. Then, 100 μl of the anticancer drug bleomyxin (1 mg/ml) was administered subcutaneously every other day to induce scleroderma for more than three weeks. Mice with scleroderma were randomly assigned to experimental and control groups. LX-403 was mixed with a 10% ethanol solution of PEG400 and administered orally at a concentration of 25 mg/kg daily for 21 days or administered directly to the skin at a concentration of 1 μM. LX-1801 was mixed with a solution of 4% DMSO, 30% PEG300, and 5% Tween80 in distilled water and administered subcutaneously at a concentration of 0.4 μM daily for 21 days. LX-2001 was mixed in PBS and administered intradermally at a concentration of 2 μM daily for 21 days. LX-2002 was mixed in distilled water with 4% DMSO, 30% PEG300, and 5% Tween80 and administered intradermally at a concentration of 2 μM daily for 21 days. […] LX-2005 was mixed in distilled water with 4% DMSO, 30% PEG300, and 5% Tween80 and administered intradermally at a concentration of 90 μM daily for 21 days. LX-2007 was mixed in distilled water with 4% DMSO, 30% PEG300, and 5% Tween80 and administered intradermally at a concentration of 90 μM daily for 21 days. […] LX-3002 was mixed with distilled water with 4% DMSO, 30% PEG300, 5% tween80 and administered orally at 10 mg/kg daily for 21 days. […] LX-5411 was mixed with 5% PBS and administered orally at 10 mg/kg daily for 21 days or subcutaneously at 3 μM. LX-5701 was mixed with PBS and administered orally at 360 mg/kg daily for 21 days. LX-6807 was mixed in saline and administered intraperitoneally at a concentration of 1 mg/kg daily for 21 days. The control group was administered only the solution in the same volume. After the end of drug administration, mice were sacrificed in the same manner as in Example 7-2 of WO2023-085787 A1, RNA was extracted from skin tissue, and the synthesized cDNA was used to perform and analyze the mRNA amounts of p16 and collagen (COL1A1) by qRT-PCR (quantitative real-time PCR). In addition, to measure the degree of bleomycin-induced skin hardening, skin frozen sections were stained with H/E (Hematoxylin/Eosin), and the thickness of the dermis was observed under an optical microscope.

Row | Compound | Response time (s) [1] | Outer nuclear layer thickness [2] | p16 mRNA [2] | HMGN1 [3] | Dermal Thickness (μm) [4] | Relative area of hair loss (%) [4] | Col1a1 mRNA (Fold) [4] | SDF1 mRNA (fold) [4] | Survival [5] | p16 mRNA [6] | Col1a1 mRNA [6] | Dermal Thickness [6]
1 | C[C@@H]1CC[C@@]23C[C@H](O)C(=O)[C@@]2(O)[C@]1(C)[C@H](OC(=O)CCl)C[C@@H](C1=CCn2c(=O)n(-c4ccccc4)c(=O)n2C1)[C@@H]3C [LX-1801, (2S,3aS,4S,5R,7R,8S,8aS,11R)-7-(1,3-Dioxo-2-phenyl-2,3,5,8-tetrahydro-1H-[1,2,4]triazolo[1,2-a]pyridazin-6-yl)-2,3a-dihydroxy-4,8,11-trimethyl-3-oxooctahydro-1H-4,8a-propanoazulen-5-yl 2-Chloroacetate] | 4.9 (±1.1) s | 32.7 (±2.6) μm | 42 (±4.4) % | 295% | 222 (±37.4) μm | 82 (±6.6) % | 2.0 (±0.2) Fold | 2.1 (±0.2) fold | 41.6 | 35.4 (±5.6) % | 47.8 (±4.7) % | 418 (±42.3) μm
2 | C[C@H]1[C@H](C)CC[C@]2(C(=O)O)CC[C@]3(C)C(=CC[C@@H]4[C@@]5(C)CC[C@H](O)C(C)(C)[C@@H]5CC[C@]43C)[C@H]12 [LX-2001, Ursolic acid] | 5.0 (±0.9) s | 34.1 (±5.1) μm | 61 (±4.1) % | 328% | 241 (±46.6) μm | 73 (±8.3) % | 2.2 (±0.4) Fold | 1.6 (±0.2) fold | 57.8 | 64.2 (±4.4) % | 62.8 (±5.6) % | 394 (±78.4) μm
3 | C[C@H]1[C@H](C)CC[C@]2(C(=O)O)CC[C@]3(C)C(=CC[C@@H]4[C@@]5(C)C[C@@H](O)[C@H](O)C(C)(C)[C@@H]5CC[C@]43C)[C@H]12 [LX-2002, Corosolic acid] | 5.3 (±0.6) s | 30.1 (±7.8) μm | 60 (±3.8) % | 314% | 253 (±40.1) μm | 75 (±8.3) % | 1.9 (±0.3) Fold | 1.4 (±0.1) fold | 58.3 | 51.3 (±2.6) % | 71.2 (±4.2) % | 427 (±60.1) μm
4 | CC1(C)CC[C@]2(C(=O)O)CC[C@]3(C)C(=CC[C@@H]4[C@@]5(C)CC[C@H](O)C(C)(C)[C@@H]5CC[C@]43C)[C@@H]2C1 [LX-2003, Oleanolic acid] | 5.1 (±0.7) s | 31.2 (±8.7) μm | 52 (±6.3) % | 218% | 235 (±56.3) μm | 71 (±2.2) % | 2.3 (±0.4) Fold | 1.7 (±0.1) fold | 64.2 | 72.4 (±5.8) % | 73.8 (±3.5) % | 411 (±81.3) μm
5 | C=C(C)[C@@H]1CC[C@]2(C(=O)O)CC[C@]3(C)[C@H](CC[C@@H]4[C@@]5(C)CC[C@H](O)C(C)(C)[C@@H]5CC[C@]43C)[C@@H]12 [LX-2005, Betulinic acid] | 4.9 (±1.2) s | 30.9 (±3.8) μm | 71 (±4.9) % | 252% | 227 (±28.4) μm | 80 (±4.9) % | 1.7 (±0.2) Fold | 1.9 (±0.2) fold | 91.6 | 62.8 (±4.6) % | 68.2 (±2.4) % | 432 (±61.7) μm
6 | CC1(C)C=C2[C@H]3CC[C@@H]4[C@@]5(C)CCC(=O)C(C)(C)[C@@H]5CC[C@@]4(C)[C@]3(C)CC[C@@]2(C(=O)O)CC1 [LX-2007, Moronic acid] | 5.8 (±0.5) s | 29.4 (±7.5) μm | 75 (±5.9) % | 192% | 219 (±31.1) μm | 86 (±5.5) % | 1.6 (±0.3) Fold | 1.3 (±0.2) fold | 95.7 | 75.1 (±3.5) % | 80.5 (±4.0) % | 421 (±83.6) μm
7 | Tocofersolan [LX-3001] | 6.1 (±0.6) s | 34.1 (±2.1) μm | 80 (±2.5) % | 261% | 223 (±15.7) μm | – | – | – | 58.7 | 76.1 (±5.5) % | 81.4 (±2.5) % | 421 (±28.4) μm
